In patent US9428732B2, “Compositions and methods for differentiating pluripotent stem cells into primitive blood cells and uses thereof” (Primorigen Biosciences, Inc., priority 2011, dated 2016):

Legend:
[1] = system: pluripotent lines (ES, iPS); assay: Additional molecules added to Differentiation Medium 1, FACS and flow cytometry; assay type: cell-based, human; conditions: for total number of cells: added to Differentiation Medium 1 (contains DEAB): LG101506 1 uM, sodium selenite 100 nM, valproic acid 1 mM
Procedure: (§1) Cells from the differentiation cultures were collected at time points indicated and washed in phosphate-buffered saline (PBS) supplemented with 2% FBS. Adherent cells were individualized using TrypLE (Life Technologies, Carlsbad Calif.), passed through a 27.5-gauge needle and filtered through a 40-70 μm cell strainer (BD Falcon, San Diego, Calif., www.bdbiosciences.com). Cells were treated with 7-aminoactinomycin D (7AAD) before analysis, and positive cells were gated out of results. Cells were stained with fluorescence-conjugated antibodies for the hematopoietic stem and progenitor cell markers CD45, CD43, CD34, CD38, CD90; CD45RA. Cells were analyzed on a FACS Canto (BD, Franklin Lakes, N.J., www.bd.com).
We have completed a number of studies to establish other molecules that may further improve the yields and phenotypes of hematopoietic cells derived using Differentiation Medium 1. Tested compounds were Cripto, LY2228820, valproic acid (VPA), sodium selenite, and butein. In all instances, each molecule below was supplemented into Differentiation Medium 1 to study their effect in concert with DEAB. All control experiments for these molecules were cells differentiated using Differentiation Medium 1 (which already contains DEAB). The data we report below for these molecules illustrates how they may improve the yield of hematopoietic progenitors and phenotypic stem cells measured by FACS, flow cytometry, and CFU assays. […] The in vivo engraftment studies to confirm this for these molecules are underway.
(§2) It has been shown that DS DNA breaks reduce transplant efficiency of repopulating HSCs. In vitro derived blood from pluripotent stem cell has high levels of DNA damage. Inhibition of DNA damage and the DNA damage response, from reactive oxygen species (ROS) or other sources of damage (radiation, chemical etc) in pluripotent stem cell differentiation systems will decrease DNA damage and increase hematopoietic cell number, repopulating ability and increase the differentiation potential of the cells (i.e. expansion of downstream lineages). See Yahata et al. Blood, 2011, 118(11):2941-50). […] Adding sodium selenite (100 nM) and butein (10 uM) independently to Differentiation Medium 1 increased enzyme activity for protection against reactive oxygen species (ROS). […] See FIGS. 11A and 11B for sodium selenite and FIGS. 12A and 12B for butein. These studies are being expanded into dose response experiments from which we expect to identify optimal concentrations.
From the pluripotent stem cells differentiated with Differentiation Medium 1 supplemented with 1 mM of valproic acid, we see that all CD34+CD38− cells were 100% CD90+. […] Engraftment studies as described are also being conducted.

[2] = system: pluripotent stem cells (H1 ES cells and CB1 iPS cells); assay: CFU assay of cells differentiated in Differentiation Medium 1 plus additional molecule; assay type: cell-based, human; conditions: for size of CFU colonies: in the present system
Procedure: FIG. 14 depicts myeloid CFU cell count data for cells differentiated from pluripotent stem cells (H1 ES cells and CB1 iPS cells) in the presence of DEAB and each of Cripto (500 ng/ml), LY2228820 (shown as “LY222820”, 100 nM), Activin A, valproic acid (VPA, 1 mM), sodium selenite (100 nM), and butein (10 μM).
The differentiation cultures were trypsinized at the indicated time points and single-cell suspensions were generated following trypsinization. For the Colony Forming Unit (CFU) assays using methyl cellulose cultures, 25% of the cells were plated in 2 ml of MethoCult H4435 (STEMCELL Technologies, Vancouver, BC) in six-well plates. Alternatively, sorted CD45+, CD43+, CD34+, 7AAD-cells were sorted and plated at 500 cells per 2 ml Methocult media. Cells were incubated for 14 days in a humidified incubator at 37° C. with 5% CO2 and evaluated for colonies by bright-field microscopy (Zeiss (Oberkochen, Germany, www.zeiss.com) Axiovert 200 with a Zeiss Axiocam), Cells were resuspended in PBS supplemented with 2% FBS. For the lymphoid myeloid differentiation assays, either CD45+, CD43+, CD34+, 7AAD-hematopoietic progenitors, or CD45+, CD43+, CD34+, CD38−, CD90+, CD45RA− phenotypic HSCs were plated at 20-40 cells per well onto OP9 and OP9delta feeder lines for B-cell and T-cell differentiation, respectively, as previously described (Nozad Charoudeh H, Tang Y, Cheng M, Cilio C M, Jacobsen S E, Sitnicka E., Identification of an NK/T cell-restricted progenitor in adult bone marrow contributing to bone marrow- and thymic-dependent NK cell, Blood, 2010 Jul. 15; 116(2):183-92. NK cell differentiation as well as myeloid cell differentiation was also detected in this differentiation system. FACS analysis was performed 4-6 weeks after plating for markers of lymphoid cell differentiation with the markers indicated. Similar cell sortings were performed for single cell Terasaki plate assays of myeloid differentiation and expansion using StemSpan media (STEMCELL Technologies, Vancouver, BC) supplemented with TPO, SCF, FLT3, IL3, GM-CSF. Colony size was estimated by microscopy.
We have completed a number of studies to establish other molecules that may further improve the yields and phenotypes of hematopoietic cells derived using Differentiation Medium 1. Tested compounds were Cripto, LY2228820, valproic acid (VPA), sodium selenite, and butein. In all instances, each molecule below was supplemented into Differentiation Medium 1 to study their effect in concert with DEAB. […] The data we report below for these molecules illustrates how they may improve the yield of hematopoietic progenitors and phenotypic stem cells measured by FACS, flow cytometry, and CFU assays. […]

[3] = system: NOD.Cg-Prkdc^scidI12rg^tm1Wjl/SzJ mice; assay: Pluripotent stem cell derived hematopoietic cell transplantation, engraftment; assay type: in vivo; conditions: Differentiation Medium 1 (containing DEAB) supplemented with the molecule; studies underway, predicted
Procedure: Single-cell suspensions of the pluripotent stem cell differentiation cultures described herein were injected into sublethally irradiated (325 rad) NOD.Cg-Prkdc^scidI12rg^tm1Wjl/SzJ mice (JAX, Bar Harbor, Me., www.jax.org) via tail vein injections, intrafemoral injection, or cardiac injection. Peripheral blood was harvested at times indicated via tail vein or retro-orbital eye bleed or cardiac puncture on anesthetized mice. Bone marrow and spleen cells were harvested at the terminal stage of the transplant experiment. Bone marrow cells were isolated via pestle mortar crushing of bone followed by rinsing and 70 micron filtering. Cells were analyzed by FACS, CFU assay, or transplanted serially into secondary and tertiary mice. FACS analysis for the human pan hematopoietic marker CD45, progenitor marker CD34, myeloid markers CD11b, CD15, CD33 and lymphoid markers CD19, CD56 and CD132, and erythroid markers CD235. When erythrocytes were not being analyzed, the red cells were lysed using ammonium chloride solution (0.8% NH4Cl with 0.1 mM EDTA) (STEMCELL Technologies, Vancouver, BC), spun, and stained with antibodies against the above-mentioned markers. All animal experiments were conducted in accordance with Institutional Animal ethical use protocols.
We have confirmed short-term engraftment and reconstitution ability of hPSC-derived HSCs produced as described in Example 1, by injecting them into sublethally irradiated (325 rad) NOD.Cg-Prkdc^sicdI12rg^tm1Wjl/SzJ mice (JAX, Bar Harbor, Me., www.jax.org) via tail vein injections, intrafemoral injection, or cardiac injection. We transplanted NOD.Cg-Prkdc^scidI12rg^tm1Wjl/SzJ mice with 3×10^6 unsorted cells or 5000 FACS sorted phenotypic HSCs (CD45+, CD43+, CD34+, CD38−, CD90+, CD45RA−) from differentiations using Differentiation Medium 1 medium not including with DEAB (Control) and Differentiation Medium 1 medium including DEAB (DEAB HSCs). […] Typical published values range from 0.1%-1.0%, including those obtained from our control where DEAB was not used to generate the HSCs (0.34%±0.1%).

iPS cells = assay: LY2228820 added to Differentiation Medium 1, flow cytometry, iPS cells; assay type: cell-based, human; conditions: 100 nM LY2228820; FIG. 8B
Procedure: as §1
(§3) We conducted experiments to determine whether the p38 inhibitor LY2228820 could further increase hematopoietic progenitor and phenotypic stem cell outputs by acting in concert with DEAB when added to Differentiation Medium 1. Human ES and iPS cells were differentiated to progenitors and phenotypic stem cells as described, except 100 nM of LY2228820 was added to Differentiation Medium 1. Cells were then harvested as described and subjected to flow cytometry and FACS analysis using fluorescently labeled antibodies for CD45, CD43, CD34, CD38, CD90, CD45RA as described. […]

H1 ES cells = assay: LY2228820 added to Differentiation Medium 1, flow cytometry, ES cells; assay type: cell-based, human; conditions: 100 nM LY2228820; FIG. 8A
Procedure: as §1, §3

[4] = system: pluripotent stem cell differentiation cultures; assay: Enzyme activity for protection against reactive oxygen species; assay type: cell-based, human; conditions: added independently to Differentiation Medium 1: sodium selenite 100 nM, butein 10 uM
Source text: as §2

human ES cells = assay: Norepinephrine added to Differentiation Medium 1, flow cytometry; assay type: cell-based
Procedure: as §1
We conducted experiments to reveal if human embryo AGM region-harvested cells generate neurospheres in culture to confirm the presence of neural crest cells in the AGM region. We further completed some experiments to identify a component secreted from the neural crest cells that may be involved in definitive hematopoiesis. We harvested human embryo AGM region tissue and, using fluorescent labeled antibodies specific for neural crest cells, were able to identify the presence of neural crest cells in the AGM hematopoietic niche. […] Hypothesizing norepinephrine as a potential effector secreted from the neural crest cells, we tested it for its ability to further increase progenitor and phenotypic stem cell yields when added to Differentiation Medium 1 at a concentration of 10 uM or 300 uM. Human ES and iPS cells were differentiated to progenitors and phenotypic stem cells with Differentiation Medium 1 as described. The only difference is that 10 uM or 300 uM of norepinephrine was added to Differentiation Medium 1. Cells were then harvested as described and subjected to flow cytometry and FACS analysis using fluorescently labeled antibodies for CD45, CD43, CD34, CD38, CD90, CD45RA as described. […] Given the verified presence of neural crest cells in the AGM niche, we are confident that these cells play a role in establishing definitive hematopoiesis in the developing embryo. As such, long term engraftment and reconstitution ability of hematopoietic progenitors and phenotypic stem cells produced from iPS and ES cells differentiated with Differentiation Medium 1 plus norepinephrine as described above are currently underway. The engraftment and reconstitution studies will be conducted as described by the protocol outlined above in the Materials and Methods.

Molecule: C/C(=C/C=C/C(C)=C/C(=O)O)c1cc(C(C)(C)C)cc(C(C)(C)C)c1OCC(F)F [LG101506]
- total output of CD90+ cells ([1]; LG101506 1 uM in Differentiation Medium 1, ES, iPS): increases
- total number of cells ([1]; butein 10 uM): increased
- CFU cellularity and output [2]: enhances
- suitability of generated phenotypic HSC cells for in vivo engraftment [3]: suitable for successful in vivo engraftment

Molecule: CC(C)(C)Cn1c(N)nc2ccc(-c3[nH]c(C(C)(C)C)nc3-c3ccc(F)cc3)nc21 [LY2228820]
- numbers of all cells with the progenitor and phenotypic stem cell phenotypes (iPS cells): increased
- increase of phenotypic hematopoietic stem cell phenotype (CD45+, CD43+, CD34+, CD38−, CD90+, CD45RA−) over DEAB-containing Differentiation Medium 1 control (H1 ES cells): ~20%
- levels of the intermittent progenitor phenotype (CD45+, CD43+, CD34+, CD38−) (H1 ES cells): unaffected
- size of CFU colonies [2]: increases CFU size
- suitability of generated phenotypic HSC cells for in vivo engraftment [3]: suitable for successful in vivo engraftment

Molecule: O=C(/C=C/c1ccc(O)c(O)c1)c1ccc(O)cc1O [butein]
- CD34+, CD38− cells ([1]; added independently to Differentiation Medium 1: sodium selenite 100 nM, butein 10 uM): increased
- total number of cells ([1]; butein 10 uM): increased
- enzyme activity for protection against reactive oxygen species (ROS) [4]: increased
- suitability of generated phenotypic HSC cells for in vivo engraftment [3]: suitable for successful in vivo engraftment

Molecule: NC[C@H](O)c1ccc(O)c(O)c1 [norepinephrine]
- colony forming ability ([2]; hES-derived hematopoietic cells, norepinephrine, data not shown): has an effect
- suitability of generated phenotypic HSC cells for in vivo engraftment [3]: suitable for successful in vivo engraftment
- increase in HSC number (human ES cells; hES-derived hematopoietic cells, norepinephrine in Differentiation Medium 1): 150%
- fold improvement of numbers of phenotypic hematopoietic stem cells (CD45+, CD34+, CD43+, CD38−, CD90+, CD45RA−) (human ES cells; norepinephrine 10 uM or 300 uM in Differentiation Medium 1, FIG. 9C): statistically significant increases
- total viable blood cells (CD45+) (human ES cells; norepinephrine 10 uM or 300 uM, FIG. 9A): insignificant improvements
- intermediate cells (CD45+, CD43+, CD34+, CD38−) (human ES cells; norepinephrine 10 uM or 300 uM, FIG. 9B): insignificant improvements

Molecule: CCCC(CCC)C(=O)O [valproic acid]
- CD34+CD38− cells that were CD90+ ([1]; Differentiation Medium 1 supplemented with 1 mM of valproic acid): 100%
- total number of cells ([1]; butein 10 uM): increased
- suitability of generated phenotypic HSC cells for in vivo engraftment [3]: suitable for successful in vivo engraftment

B1: Cripto: protein expressed in hypoxic endosteal niche cells (protein, UniProt P13385 31-150, looked up)
Protein Cripto: LGHQEFARPSRGYLAFRDDSIWPQEEPAIRPRSSQRVPPMGIQHSKELNRTCCLNGGTCMLGSFCACPPSFYGRNCEHDVRKENCGSVPHDTWLPKKCSLCKCWHGQLRCFPQAFLPGCD
- size of CFU colonies [2]: increases the size
- suitability of generated phenotypic HSC cells for in vivo engraftment [3]: suitable for successful in vivo engraftment
